Tests used:
DNA-PKcs = target: T1, DNA-PKcs (Mus musculus, UniProt P97313); test: p38 MAPK activation in pre-activated WT and B7-H1 KO T cells cultured with DNA-PKcs inhibitor; format: cell-based
T1 construct: endogenous in cells
Method: NU7026 (2-(morpholin-4-yl)-benzo[h]chomen-4-one) is a DNA-PKcs inhibitor. […] NU7026 is added into cultures with pre-activated WT and B7-H1 KO T cells and after 24-72 hours of incubation, the activation of p38 is measured in the cells. As a consequence of p38 MAPK activation regulated by NU7026, the level of Bcl-xL also is measured in the T cells after treatment with NU7026. If p38 activation is regulated by DNA-PKcs, changes in p38 activation in the presence of NU7026 would be observed in WT T cells. If B7-H1 requires DNA-PKcs to regulate activation of p38 MAPK, NU7026 would induce significant changes in p38 MAPK activation in WT T cells, but not in B7-H1 KO T cells. […] Bcl-xL levels would change accordingly with the changes in p38 MAPK activation. In addition to inhibition of DNA-PKcs activity by NU7026, the impact of total DNA-PKcs protein levels on p38 MAPK activation is evaluated. siRNA-mediated knockdown of DNA-PKcs is known to result in reduced ERK activation in mouse macrophages (Yotsumoto et al., supra). Using a similar approach, experiments are conducted to test whether down-regulation of DNA-PKcs in T cells affects p38 MAPK activation in WT and B7-H1 KO T cells. Preliminary data predicts a potential link between DNA-PK and activation of p38 MAPK. […]

DNA-PK = DNA-PK (Homo sapiens, UniProt P78527); details: 10 μM; cited from earlier work

T1 sequence (P97313 whole entry): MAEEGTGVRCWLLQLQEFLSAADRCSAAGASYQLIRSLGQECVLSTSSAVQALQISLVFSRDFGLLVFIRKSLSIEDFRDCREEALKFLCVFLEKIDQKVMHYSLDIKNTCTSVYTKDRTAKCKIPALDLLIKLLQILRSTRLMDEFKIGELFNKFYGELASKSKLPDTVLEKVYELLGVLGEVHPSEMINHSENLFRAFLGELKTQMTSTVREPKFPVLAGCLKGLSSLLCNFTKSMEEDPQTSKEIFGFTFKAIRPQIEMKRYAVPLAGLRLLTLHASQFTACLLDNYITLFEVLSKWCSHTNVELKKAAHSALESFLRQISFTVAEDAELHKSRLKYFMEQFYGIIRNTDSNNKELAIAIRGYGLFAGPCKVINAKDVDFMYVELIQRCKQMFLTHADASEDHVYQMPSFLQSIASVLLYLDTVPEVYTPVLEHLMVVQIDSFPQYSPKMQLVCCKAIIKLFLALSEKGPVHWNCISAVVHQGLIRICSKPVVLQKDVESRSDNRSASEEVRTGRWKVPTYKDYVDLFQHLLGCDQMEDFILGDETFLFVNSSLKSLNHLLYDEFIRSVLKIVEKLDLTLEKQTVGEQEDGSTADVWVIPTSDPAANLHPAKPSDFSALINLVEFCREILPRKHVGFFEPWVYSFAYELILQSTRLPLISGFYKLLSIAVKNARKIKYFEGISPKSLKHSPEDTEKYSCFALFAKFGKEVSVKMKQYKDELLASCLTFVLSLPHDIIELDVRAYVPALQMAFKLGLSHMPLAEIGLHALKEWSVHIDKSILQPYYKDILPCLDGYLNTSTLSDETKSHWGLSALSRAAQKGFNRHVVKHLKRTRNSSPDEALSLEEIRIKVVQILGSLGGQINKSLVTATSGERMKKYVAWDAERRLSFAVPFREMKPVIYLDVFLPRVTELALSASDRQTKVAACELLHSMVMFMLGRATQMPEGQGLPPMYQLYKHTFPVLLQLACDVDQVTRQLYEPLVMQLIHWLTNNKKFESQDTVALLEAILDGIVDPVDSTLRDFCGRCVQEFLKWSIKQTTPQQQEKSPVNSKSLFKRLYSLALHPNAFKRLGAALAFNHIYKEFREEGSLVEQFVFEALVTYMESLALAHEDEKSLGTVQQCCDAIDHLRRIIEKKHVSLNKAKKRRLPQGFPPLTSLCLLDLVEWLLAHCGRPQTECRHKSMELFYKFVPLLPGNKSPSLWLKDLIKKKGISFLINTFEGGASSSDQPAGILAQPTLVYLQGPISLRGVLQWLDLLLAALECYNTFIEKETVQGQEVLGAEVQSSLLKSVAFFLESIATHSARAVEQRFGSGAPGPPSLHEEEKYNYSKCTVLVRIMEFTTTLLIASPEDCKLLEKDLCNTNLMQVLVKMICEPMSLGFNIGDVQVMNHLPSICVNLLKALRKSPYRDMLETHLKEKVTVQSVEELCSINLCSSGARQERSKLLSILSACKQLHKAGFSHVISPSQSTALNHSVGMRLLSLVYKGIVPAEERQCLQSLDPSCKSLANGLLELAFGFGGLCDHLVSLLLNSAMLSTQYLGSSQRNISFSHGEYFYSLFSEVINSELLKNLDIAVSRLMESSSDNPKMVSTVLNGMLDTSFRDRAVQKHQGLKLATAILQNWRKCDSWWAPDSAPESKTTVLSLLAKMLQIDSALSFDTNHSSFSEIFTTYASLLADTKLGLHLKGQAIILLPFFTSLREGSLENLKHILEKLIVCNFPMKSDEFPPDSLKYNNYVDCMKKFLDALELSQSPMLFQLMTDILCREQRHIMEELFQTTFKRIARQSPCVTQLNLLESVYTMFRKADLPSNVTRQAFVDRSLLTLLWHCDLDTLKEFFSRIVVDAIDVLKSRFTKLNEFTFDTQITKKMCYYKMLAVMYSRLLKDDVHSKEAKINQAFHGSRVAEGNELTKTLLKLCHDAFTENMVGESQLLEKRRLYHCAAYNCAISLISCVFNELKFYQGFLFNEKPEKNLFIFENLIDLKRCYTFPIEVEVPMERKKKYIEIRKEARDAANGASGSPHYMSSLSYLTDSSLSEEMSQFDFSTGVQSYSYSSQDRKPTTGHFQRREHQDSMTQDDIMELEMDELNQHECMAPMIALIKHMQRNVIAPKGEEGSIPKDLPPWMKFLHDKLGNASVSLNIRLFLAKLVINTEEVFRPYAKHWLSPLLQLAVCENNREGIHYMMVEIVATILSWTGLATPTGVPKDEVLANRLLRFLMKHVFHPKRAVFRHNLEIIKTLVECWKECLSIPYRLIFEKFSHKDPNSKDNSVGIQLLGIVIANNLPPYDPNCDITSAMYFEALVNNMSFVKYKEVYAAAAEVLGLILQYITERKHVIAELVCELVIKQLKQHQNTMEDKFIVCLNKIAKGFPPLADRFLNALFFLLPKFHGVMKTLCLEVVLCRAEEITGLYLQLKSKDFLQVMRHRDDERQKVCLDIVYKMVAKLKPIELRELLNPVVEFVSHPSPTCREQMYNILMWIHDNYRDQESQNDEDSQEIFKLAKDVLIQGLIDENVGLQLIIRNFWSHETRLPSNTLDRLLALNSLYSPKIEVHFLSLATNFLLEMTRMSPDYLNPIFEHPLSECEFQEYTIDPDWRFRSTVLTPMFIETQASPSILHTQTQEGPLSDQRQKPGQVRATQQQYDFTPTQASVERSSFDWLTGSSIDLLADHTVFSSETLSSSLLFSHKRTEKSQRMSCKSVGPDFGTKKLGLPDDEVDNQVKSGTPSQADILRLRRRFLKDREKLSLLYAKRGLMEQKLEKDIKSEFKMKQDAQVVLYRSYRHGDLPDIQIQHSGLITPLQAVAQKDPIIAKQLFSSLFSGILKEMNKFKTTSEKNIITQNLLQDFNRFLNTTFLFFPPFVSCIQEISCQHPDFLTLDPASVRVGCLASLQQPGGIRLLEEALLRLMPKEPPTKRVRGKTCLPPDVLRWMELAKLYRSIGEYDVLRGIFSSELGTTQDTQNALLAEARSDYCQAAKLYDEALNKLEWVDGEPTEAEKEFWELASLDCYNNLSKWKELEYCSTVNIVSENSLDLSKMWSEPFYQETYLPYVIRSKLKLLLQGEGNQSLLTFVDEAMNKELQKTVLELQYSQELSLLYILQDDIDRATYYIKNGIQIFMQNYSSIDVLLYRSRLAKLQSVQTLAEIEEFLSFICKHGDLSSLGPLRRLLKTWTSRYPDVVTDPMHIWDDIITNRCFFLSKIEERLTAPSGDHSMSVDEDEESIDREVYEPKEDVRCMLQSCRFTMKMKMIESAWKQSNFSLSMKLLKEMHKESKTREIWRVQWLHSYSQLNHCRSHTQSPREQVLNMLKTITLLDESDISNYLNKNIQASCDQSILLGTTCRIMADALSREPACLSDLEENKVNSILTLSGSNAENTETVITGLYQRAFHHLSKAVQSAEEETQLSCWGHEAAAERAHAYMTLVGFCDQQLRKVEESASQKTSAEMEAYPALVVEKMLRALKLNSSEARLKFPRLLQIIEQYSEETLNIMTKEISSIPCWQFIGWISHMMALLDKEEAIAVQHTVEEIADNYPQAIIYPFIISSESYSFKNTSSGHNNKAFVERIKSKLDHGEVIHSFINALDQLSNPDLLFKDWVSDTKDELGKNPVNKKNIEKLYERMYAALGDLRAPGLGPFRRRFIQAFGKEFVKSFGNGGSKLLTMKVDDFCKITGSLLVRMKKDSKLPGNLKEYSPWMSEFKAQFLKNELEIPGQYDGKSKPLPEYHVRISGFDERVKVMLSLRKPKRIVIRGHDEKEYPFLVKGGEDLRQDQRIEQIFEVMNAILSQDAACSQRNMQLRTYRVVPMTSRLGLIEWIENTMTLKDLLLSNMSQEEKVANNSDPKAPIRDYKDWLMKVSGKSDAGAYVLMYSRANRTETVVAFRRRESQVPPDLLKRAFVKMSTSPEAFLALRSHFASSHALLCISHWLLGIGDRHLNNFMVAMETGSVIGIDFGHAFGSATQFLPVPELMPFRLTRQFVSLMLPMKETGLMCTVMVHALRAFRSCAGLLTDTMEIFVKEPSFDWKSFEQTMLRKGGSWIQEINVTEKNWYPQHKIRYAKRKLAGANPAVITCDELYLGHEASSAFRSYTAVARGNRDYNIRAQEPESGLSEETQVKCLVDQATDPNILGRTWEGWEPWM

O=c1cc(N2CCOCC2)oc2c1ccc1ccccc12 [NU7026, 2-(morpholin-4-yl)-benzo[h]chomen-4-one]
p38 MAPK activation in WT T cells (DNA-PKcs): increased | inhibition of activity of purified DNA-PK (DNA-PK): completely inhibit
